From US20240254118A1, “PRMT5 INHIBITORS AND USES THEREOF” (Gilead Sciences, Inc., priority 2022, published 2024) come the findings set out here.

Bounds are passed on as bounds.

For test [1], the system named is SDMA signal (PRMT5 inhibition) in HCT116 MTAP-deleted cells. Kind of test: Symmetric di-methyl arginine image-based high content screen assay (SDMA assay), HCT116 MTAP-deleted. To be noted: SDMA assay; for EC50: Homo sapiens, HCT-116, 72 h, 3 days of treatment, cell line not given, taken as HCT116 MTAP-deleted, read-out: EC50 (SDMA assay); for EC50 selectivity (SDMA assay): taken as HCT116 WT versus MTAP-deleted. It counts as cell-based. The method, then:
Symmetric di-methyl arginine image-based high content screen assay (SDMA assay) was performed in HCT116 WT and HCT116 MTAP-deleted cell lines to measure Symmetric Di-methyl Arginine (SDMA) signal reduction after selective PRMT5 inhibition in the MTAP-deleted cells.
Briefly, the same compound plates were generated as mentioned in the previous section of Cell viability assay on Day −1.
On Day 3, the cells were fixed by adding 45 μl of 8% neutralized formalin solution to each well using EL460 liquid dispenser 5 μl cassette and the cells were incubated for 30 minutes at room temperature. The formalin solution was washed off with […] phosphate buffered saline (dPBS), the 0.1% Triton X-100 solution in dPBS was used to permeabilize the cells for 15 minutes at room temperature. The triton solution was aspirated, 50 μl of Odyssey Blocking buffer+0.05% Tween20 was added and the plate was incubated at room temperature for 30 minutes.
The blocking solution was removed, a 20 μl of SDMA antibody (Cell Signaling Technology, Cat no. 13222) diluted 1:500 in Odyssey Blocking buffer+0.05% Tween20 was added and the plate was incubated at 4° C. overnight. Next day, the primary SDME antibody solution was washed from each well three times with 0.05% Tween20 in dPBS (PBST).
A 30 μl of the secondary antibody, a Goat anti-Rabbit Alexa Fluor Plus 488 (Invitrogen, Cat no. PIA32731) was diluted 1:500 in Odyssey Blocking buffer+0.05% Tween20 and the plate was incubated for 1.5 hours in dark at room temperature. The secondary antibody solution was removed, 30 μl of 5 mg/ml DAPI solution diluted 1:2000 in dPBS was added and the plate was incubated for 30 minutes in dark at room temperature. The DAPI solution was aspirated and the wells were washed six times with dPBS.
The SDMA signal and DAPI signal per cell were counted using a Cellomics CX7 LZR instrument reading under 488 and 405 nm laser, respectively. The SDMA signal was quantified by mean average intensity per cell from Alexa Fluor Plus 488 after the cell was defined with DAPI.

For test [2], the system named is HCT116 MTAP-deleted cells. In words: Cell viability assay (CellTiter-Glo, 7 days), HCT116 MTAP-deleted. The note with it: Homo sapiens, HCT-116, 168 h. (In general: Cellular ATP, detected with luciferase, serves as a proxy for viable cell number.)

As to `CC(=O)N(C)N(Cc1ccc(C(F)(F)F)cc1F)C(=O)c1ccc2nc(N)c3cnn(C)c3c2c1` [Example 39, N′-acetyl-4-amino-N-[[2-fluoro-4-(trifluoromethyl)phenyl]methyl]-N′,1-dimethyl-pyrazolo[4,3-c]quinoline-8-carbohydrazide], in test [1], the EC50 is below 1 nM and the “EC50 selectivity (SDMA assay)” value was determined as 25. In test [2], this compound came in with a CC50 below 100 nM.

In the case of `CC(=O)N(C)N(Cc1ccc(C(F)(F)F)cc1F)C(=O)c1cc2c(cc1F)nc(N)c1cnn(C)c12` [Example 40, N′-acetyl-4-amino-7-fluoro-N-[[2-fluoro-4-(trifluoromethyl)phenyl]methyl]-N′,1-dimethyl-pyrazolo[4,3-c]quinoline-8-carbohydrazide], in test [1], the EC50 was below 1 nM and the “EC50 selectivity (SDMA assay)” value was 8. The same compound had a CC50 in test [2] below 100 nM.

With `CCC(=O)N(C)N(Cc1ccc(C(F)(F)F)cn1)C(=O)c1ccc2nc(N)c3cnn(C)c3c2c1` [Example 41, 4-amino-N′, 1-dimethyl-N′-propanoyl-N-[[5-(trifluoromethyl)-2-pyridyl]methyl]pyrazolo[4,3-c]quinoline-8-carbohydrazide], in test [1], the EC50 was below 1 nM and the “EC50 selectivity (SDMA assay)” value was determined as 46. Moreover, the CC50 in test [2] is below 100 nM.

In the case of `CCC(=O)N(C)N(Cc1ccc(C(F)(F)F)cn1)C(=O)c1cc2c(cc1F)nc(N)c1cnn(C)c12` [Example 42, 4-amino-7-fluoro-N′, 1-dimethyl-N′-propanoyl-N-[[5-(trifluoromethyl)-2-pyridyl]methyl]pyrazolo[4,3-c]quinoline-8-carbohydrazide], in test [1], the EC50 was below 1 nM and the “EC50 selectivity (SDMA assay)” value amounted to 14. The compound also gave a CC50 in test [2] below 100 nM.

On to `Cn1ncc2c(N)nc3ccc(C(=O)N(Cc4ccc(C(F)(F)F)cn4)N4CCC(C)(C)C4=O)cc3c21` [Example 43, 4-amino-N-(3,3-dimethyl-2-oxo-pyrrolidin-1-yl)-1-methyl-N-[[5-(trifluoromethyl)-2-pyridyl]methyl]pyrazolo[4,3-c]quinoline-8-carboxamide], for which, in test [1], the EC50 fell in the range of 1 to 5 nM and the “EC50 selectivity (SDMA assay)” value worked out at 226. The CC50 in test [2] is below 100 nM.

For the compound `Cn1ncc2c(N)nc3cc(F)c(C(=O)N(Cc4ccc(C(F)(F)F)cn4)N4CCC(C)(C)C4=O)cc3c21` [Example 44, 4-amino-N-(3,3-dimethyl-2-oxo-pyrrolidin-1-yl)-7-fluoro-1-methyl-N-[[5-(trifluoromethyl)-2-pyridyl]methyl]pyrazolo[4,3-c]quinoline-8-carboxamide], in test [1], the EC50 was 1 to 5 nM and the “EC50 selectivity (SDMA assay)” value stood at 187. The CC50 in test [2] is below 100 nM.

Turning to `CCOC(=O)NN(Cc1ccc(C(F)(F)F)cn1)C(=O)c1ccc2nc(N)c3cnn(C)c3c2c1` [Example 45, ethyl N-[(4-amino-1-methyl-pyrazolo[4,3-c]quinoline-8-carbonyl)-[[5-(trifluoromethyl)-2-pyridyl]methyl]amino]carbamate], in test [1], the EC50 is below 1 nM and the “EC50 selectivity (SDMA assay)” value is recorded as 63. For the same compound, the CC50 in test [2] was below 100 nM.

On to `CCOC(=O)NN(Cc1ccc(C(F)(F)F)cn1)C(=O)c1cc2c(cc1F)nc(N)c1cnn(C)c12` [Example 46, ethyl N-[(4-amino-7-fluoro-1-methyl-pyrazolo[4,3-c]quinoline-8-carbonyl)-[[5-(trifluoromethyl)-2-pyridyl]methyl]amino]carbamate], for which, in test [1], the EC50 was below 1 nM and the “EC50 selectivity (SDMA assay)” value turned out to be 6. In test [2], this compound came in with a CC50 below 100 nM.

As to `CC(=O)N(C)N(Cc1ccc(F)cc1F)C(=O)c1ccc2nc(N)c3cnn(C)c3c2c1` [Example 47, N′-acetyl-4-amino-N-[(2,4-difluorophenyl)methyl]-N′,1-dimethyl-pyrazolo[4,3-c]quinoline-8-carbohydrazide], in test [1], the EC50 was below 1 nM and the “EC50 selectivity (SDMA assay)” value is 121. In test [2], the CC50 was below 100 nM.

Turning to `CC(=O)N(C)N(Cc1ccc(F)c(F)c1F)C(=O)c1ccc2nc(N)c3cnn(C)c3c2c1` [Example 48, N′-acetyl-4-amino-N′,1-dimethyl-N-[(2,3,4-trifluorophenyl)methyl]pyrazolo[4,3-c]quinoline-8-carbohydrazide], in test [1], the EC50 is 1 to 5 nM and the “EC50 selectivity (SDMA assay)” value turned out to be 326. In test [2], the CC50 was below 100 nM.

Take `CC(=O)N(C)N(Cc1cc(F)c(F)cc1F)C(=O)c1ccc2nc(N)c3cnn(C)c3c2c1` [Example 49, N′-acetyl-4-amino-N′,1-dimethyl-N-[(2,4,5-trifluorophenyl)methyl]pyrazolo[4,3-c]quinoline-8-carbohydrazide]: in test [1], the EC50 was below 1 nM and the “EC50 selectivity (SDMA assay)” value stood at 163. In addition, the CC50 in test [2] was below 100 nM.

As for `Cn1ncc2c(N)nc3ccc(C(=O)N(Cc4ccc(C(F)(F)F)cc4F)N4CCOCC4=O)cc3c21` [Example 50, 4-amino-N-[[2-fluoro-4-(trifluoromethyl)phenyl]methyl]-1-methyl-N-(3-oxomorpholin-4-yl)pyrazolo[4,3-c]quinoline-8-carboxamide], in test [1], the EC50 is below 1 nM and the “EC50 selectivity (SDMA assay)” value is 31. In test [2], the CC50 is below 100 nM.

Consider `CN(C(=O)C1(C)CC1)N(Cc1ccc(C(F)(F)F)cn1)C(=O)c1ccc2nc(N)c3cnn(C)c3c2c1` [Example 51, 4-amino-N′,1-dimethyl-N′-(1-methylcyclopropanecarbonyl)-N-[[5-(trifluoromethyl)-2-pyridyl]methyl]pyrazolo[4,3-c]quinoline-8-carbohydrazide], for which, in test [1], the EC50 lay in the range of 1 to 5 nM and the “EC50 selectivity (SDMA assay)” value stood at 260. In test [2], this compound came in with a CC50 below 100 nM.

For the compound `CN(C(=O)C1(C(F)(F)F)CC1)N(Cc1ccc(C(F)(F)F)cn1)C(=O)c1ccc2nc(N)c3cnn(C)c3c2c1` [Example 52, 4-amino-N′, 1-dimethyl-N′-[1-(trifluoromethyl)cyclopropanecarbonyl]-N-[[5-(trifluoromethyl)-2-pyridyl]methyl]pyrazolo[4,3-c]quinoline-8-carbohydrazide], in test [1], the EC50 was 1 to 5 nM and the “EC50 selectivity (SDMA assay)” value was determined as 174. The CC50 in test [2] fell in the range of 100 to 1000 nM.

For the compound `Cn1ncc2c(N)nc3cc(F)c(C(=O)N(Cc4ccccn4)N4CCCC4=O)cc3c21` [Example 53, 4-amino-7-fluoro-1-methyl-N-(2-oxopyrrolidin-1-yl)-N-(pyridin-2-ylmethyl)-1H-pyrazolo[4,3-c]quinoline-8-carboxamide], in test [1], the EC50 is 1 to 5 nM and the “EC50 selectivity (SDMA assay)” value came to 338. For the same compound, the CC50 in test [2] lay within 100 to 1000 nM.

For the compound `Cn1ncc2c(N)nc3ccc(C(=O)N(Cc4ccccn4)N4CCCC4=O)cc3c21` [Example 54, 4-amino-1-methyl-N-(2-oxopyrrolidin-1-yl)-N-(pyridin-2-ylmethyl)-1H-pyrazolo[4,3-c]quinoline-8-carboxamide], in test [1], the EC50 was above 5 nM and the “EC50 selectivity (SDMA assay)” value turned out to be 339. In test [2], this compound showed a CC50 of 100 to 1000 nM.

Regarding `Cn1ncc2c(N)nc3cc(F)c(C(=O)N(Cc4ccccc4F)N4CCCC4=O)cc3c21` [Example 55, 4-amino-7-fluoro-N-(2-fluorobenzyl)-1-methyl-N-(2-oxopyrrolidin-1-yl)-1H-pyrazolo[4,3-c]quinoline-8-carboxamide], in test [1], the EC50 is below 1 nM and the “EC50 selectivity (SDMA assay)” value is recorded as 168. The CC50 in test [2] was below 100 nM.

As usually defined, the EC50 is the concentration at which the effect is half-maximal. Broadly, the CC50 is the concentration at which the toxic effect on the cells reaches its halfway point. Read a high CC50 as better tolerance by the cells.
